Reference: ChEMBL document CHEMBL1138499, “Anti-AIDS agents. 78. Design, synthesis, metabolic stability assessment, and antiviral evaluation of novel betulinic acid derivatives as potent anti-human immunodeficiency virus (HIV) agents” (J Med Chem, 2009)

How the values were obtained:
[1] = Metabolic stability in human liver microsomes assessed as drug remaining at 1 mg/mL after 15 mins by HPLC; format: ADME, Microsome; conditions: read-out: Stability
[2] = Metabolic stability in human liver microsomes assessed as drug remaining at 1 mg/mL after 30 mins by HPLC; format: ADME, Microsome; conditions: read-out: Stability
MT2 = conditions: human
Description: Cytotoxicity against human MT2 cells by XTT assay

[3] = test system: Human immunodeficiency virus 1; assay: Antiviral activity against HIV1 3B infected in human MT2 cells assessed as p24 antigen level after 4 days by ELISA; format: functional, organism-based; conditions: Human immunodeficiency virus 1, 3B, MT2, 96 h
[4] = Metabolic stability in human liver microsomes assessed as drug remaining at 1 mg/mL after 60 mins by HPLC; format: ADME, Microsome; conditions: read-out: Stability
[5] = Metabolic stability in human liver microsomes assessed as drug remaining at 1 mg/mL after 120 mins by HPLC; format: ADME, Microsome; conditions: read-out: Stability
[6] = Metabolic stability in human liver microsomes assessed as drug remaining at 1 mg/mL after 5 mins by HPLC; format: ADME, Microsome; conditions: read-out: Stability
[7] = Therapeutic index, ratio of CC50 for human MT2 cells to EC50 for HIV1 3B; format: cell-based; conditions: read-out: TI
MT4 = assay: Cytotoxicity against human MT4 cells by XTT assay; format: cell-based
[8] = test system: Human immunodeficiency virus 1; assay: Antiviral activity against HIV1 NL4-3 infected in human MT4 cells assessed as p24 antigen level after 4 days by ELISA; format: functional, organism-based; conditions: Human immunodeficiency virus 1, NL4-3, MT4, 96 h
[9] = test system: Human immunodeficiency virus 1; assay: Antiviral activity against HIV1 3B infected in human MT2 cells assessed as p24 antigen level at their respective CC50 concentration after 4 days by ELISA; format: functional, organism-based
[10] = Therapeutic index, ratio of CC50 for human MT4 cells to EC50 for HIV1 NL4-3; format: cell-based; conditions: read-out: TI

SMILES: C=C(C)[C@@H]1CC[C@]2(C(=O)NCCCCCCCC(=O)O)CC[C@]3(C)[C@H](CC[C@@H]4[C@@]5(C)CC[C@H](O)C(C)(C)[C@@H]5CC[C@]43C)[C@@H]12
- remaining at 0.25 h, 1 mg/mL [1]: 70.7%
- remaining at 0.5 h, 1 mg/mL [2]: 61.9%
- CC50 (MT2): 33.4 µM
- EC50 [3]: 3.3 µM
- remaining at 1 h, 1 mg/mL [4]: 40.1%
- remaining at 2 h, 1 mg/mL [5]: 7.9%
- remaining at 5 min, 1 mg/mL [6]: 93.4%
- selectivity ratio [7]: 10.1

SMILES: C=C(C)[C@@H]1CC[C@]2(C(=O)NCCCCCCCC(=O)N[C@@H](CC(C)C)[C@H](O)CC(=O)O)CC[C@]3(C)[C@H](CC[C@@H]4[C@@]5(C)CC[C@H](O)C(C)(C)[C@@H]5CC[C@]43C)[C@@H]12
- CC50 (MT4): > 10 µM
- EC50 [8]: 0.089 µM

SMILES: C=C(C)[C@@H]1CC[C@]2(C(=O)N[C@@H](CC(C)C)C(=O)O)CC[C@]3(C)[C@H](CC[C@@H]4[C@@]5(C)CC[C@H](O)C(C)(C)[C@@H]5CC[C@]43C)[C@@H]12
- EC50 [9]: Not Active
- CC50 (MT2): 29.8 µM

SMILES: C=C(C)[C@@H]1CC[C@]2(C(=O)N3CCC(CCCC(=O)N4CCOCC4)CC3)CC[C@]3(C)[C@H](CC[C@@H]4[C@@]5(C)CC[C@H](OC(=O)CC(C)(C)C(=O)O)C(C)(C)[C@@H]5CC[C@]43C)[C@@H]12
- CC50 (MT2): 19.2 µM
- CC50 (MT4): 8.8 µM
- EC50 [3]: 0.011 µM
- selectivity ratio [10]: 121
- selectivity ratio [7]: 1750
- EC50 [8]: 0.07 µM

SMILES: C=C(CBr)[C@@H]1CC[C@]2(C(=O)N[C@@H](CC(C)C)C(=O)O)CC[C@]3(C)[C@H](CC[C@@H]4[C@@]5(C)CC[C@H](O)C(C)(C)[C@@H]5CC[C@]43C)[C@@H]12
- EC50 [9]: Not Active
- CC50 (MT2): 26.8 µM

SMILES: C=C(CBr)[C@@H]1CC[C@]2(C(=O)N[C@@H](CC(C)C)C(=O)O)CC[C@]3(C)[C@H](CC[C@@H]4[C@@]5(C)CC[C@H](OC(=O)CC(C)(C)C(=O)O)C(C)(C)[C@@H]5CC[C@]43C)[C@@H]12
- CC50 (MT2): 33.2 µM
- EC50 [3]: 0.011 µM
- selectivity ratio [7]: 3020

SMILES: C=C(COCCC)[C@@H]1CC[C@]2(C(=O)N[C@@H](CC(C)C)C(=O)O)CC[C@]3(C)[C@H](CC[C@@H]4[C@@]5(C)CC[C@H](O)C(C)(C)[C@@H]5CC[C@]43C)[C@@H]12
- EC50 [9]: Not Active
- CC50 (MT2): 25.3 µM

SMILES: C=C(COCCN1CCOCC1)[C@@H]1CC[C@]2(C(=O)NCCCCCCCC(=O)NC)CC[C@]3(C)[C@H](CC[C@@H]4[C@@]5(C)CC[C@H](O)C(C)(C)[C@@H]5CC[C@]43C)[C@@H]12
- CC50 (MT2): 22.3 µM
- CC50 (MT4): > 10 µM
- EC50 [3]: 0.09 µM
- selectivity ratio [10]: > 138
- selectivity ratio [7]: 250
- EC50 [8]: 0.09 µM

SMILES: C=C(C)[C@@H]1CC[C@]2(C(=O)N[C@@H](CC(C)C)C(=O)O)CC[C@]3(C)[C@H](CC[C@@H]4[C@@]5(C)CC[C@H](NC(=O)CC(C)(C)C(=O)O)C(C)(C)[C@@H]5CC[C@]43C)[C@@H]12
- CC50 (MT2): 35.9 µM
- EC50 [3]: 13.2 µM
- selectivity ratio [7]: 2.7

SMILES: C=C(CBr)[C@@H]1CC[C@]2(C(=O)NCCCCCCCC(=O)O)CC[C@]3(C)[C@H](CC[C@@H]4[C@@]5(C)CC[C@H](O)C(C)(C)[C@@H]5CC[C@]43C)[C@@H]12
- CC50 (MT2): 36.9 µM
- EC50 [3]: 2.3 µM
- selectivity ratio [7]: 16.1

SMILES: C=C(C)[C@@H]1CC[C@]2(C(=O)N3CCC(CCCC(=O)NC)CC3)CC[C@]3(C)[C@H](CC[C@@H]4[C@@]5(C)CC[C@H](OC(=O)CC(C)(C)C(=O)O)C(C)(C)[C@@H]5CC[C@]43C)[C@@H]12
- CC50 (MT2): 33.3 µM
- CC50 (MT4): > 10 µM
- EC50 [3]: 0.067 µM
- selectivity ratio [7]: 497
- EC50 [8]: 0.24 µM

SMILES: C=C(C)[C@@H]1CC[C@]2(C(=O)N3CCC(CCCC(=O)NCCN4CCOCC4)CC3)CC[C@]3(C)[C@H](CC[C@@H]4[C@@]5(C)CC[C@H](OC(=O)CC(C)(C)C(=O)O)C(C)(C)[C@@H]5CC[C@]43C)[C@@H]12
- CC50 (MT2): 17.3 µM
- CC50 (MT4): 8.5 µM
- EC50 [3]: 0.007 µM
- selectivity ratio [10]: 284
- selectivity ratio [7]: 2470
- EC50 [8]: 0.035 µM

SMILES: C=C(C)[C@@H]1CC[C@]2(C(=O)N3CCC(CCCC(=O)O)CC3)CC[C@]3(C)[C@H](CC[C@@H]4[C@@]5(C)CC[C@H](O)C(C)(C)[C@@H]5CC[C@]43C)[C@@H]12
- remaining at 0.25 h, 1 mg/mL [1]: 97.6%
- remaining at 0.5 h, 1 mg/mL [2]: 81.4%
- CC50 (MT2): 41 µM
- EC50 [3]: 21.7 µM
- remaining at 1 h, 1 mg/mL [4]: 62.7%
- remaining at 2 h, 1 mg/mL [5]: 53.8%
- remaining at 5 min, 1 mg/mL [6]: 102%
- selectivity ratio [7]: 1.9

SMILES: C=C(COCCc1ccc(F)cc1)[C@@H]1CC[C@]2(C(=O)N[C@@H](CC(C)C)C(=O)O)CC[C@]3(C)[C@H](CC[C@@H]4[C@@]5(C)CC[C@H](O)C(C)(C)[C@@H]5CC[C@]43C)[C@@H]12
- EC50 [9]: Not Active
- CC50 (MT2): 24.4 µM

SMILES: C=C(C)[C@@H]1CC[C@]2(C(=O)N3CCC(CCCC(=O)O)CC3)CC[C@]3(C)[C@H](CC[C@@H]4[C@@]5(C)CC[C@H](OC(=O)CC(C)(C)C(=O)O)C(C)(C)[C@@H]5CC[C@]43C)[C@@H]12
- CC50 (MT2): 20.8 µM
- EC50 [3]: 0.015 µM
- selectivity ratio [7]: 1390

SMILES: C=C(COCCc1ccc(Cl)cc1)[C@@H]1CC[C@]2(C(=O)N[C@@H](CC(C)C)C(=O)O)CC[C@]3(C)[C@H](CC[C@@H]4[C@@]5(C)CC[C@H](O)C(C)(C)[C@@H]5CC[C@]43C)[C@@H]12
- CC50 (MT2): 34.6 µM
- EC50 [3]: 27.8 µM
- selectivity ratio [7]: 1.2

SMILES: C=C(COCCN1CCOCC1)[C@@H]1CC[C@]2(C(=O)N[C@@H](CC(C)C)C(=O)O)CC[C@]3(C)[C@H](CC[C@@H]4[C@@]5(C)CC[C@H](O)C(C)(C)[C@@H]5CC[C@]43C)[C@@H]12
- CC50 (MT2): 35.8 µM
- EC50 [3]: 26.6 µM
- selectivity ratio [7]: 1.4

SMILES: C=C(CON1CCOCC1)[C@@H]1CC[C@]2(C(=O)N[C@@H](CC(C)C)C(=O)O)CC[C@]3(C)[C@H](CC[C@@H]4[C@@]5(C)CC[C@H](O)C(C)(C)[C@@H]5CC[C@]43C)[C@@H]12
- EC50 [9]: Not Active
- CC50 (MT2): 27.5 µM

SMILES: C=C(COCCc1ccccc1)[C@@H]1CC[C@]2(C(=O)N[C@@H](CC(C)C)C(=O)O)CC[C@]3(C)[C@H](CC[C@@H]4[C@@]5(C)CC[C@H](O)C(C)(C)[C@@H]5CC[C@]43C)[C@@H]12
- EC50 [9]: Not Active
- CC50 (MT2): 21.7 µM

SMILES: C=C(CO)[C@@H]1CC[C@]2(C(=O)NCCCCCCCC(=O)O)CC[C@]3(C)[C@H](CC[C@@H]4[C@@]5(C)CC[C@H](O)C(C)(C)[C@@H]5CC[C@]43C)[C@@H]12
- CC50 (MT2): 40.7 µM
- EC50 [3]: 14.8 µM
- selectivity ratio [7]: 2.8

SMILES: C=C(COCCc1ccc(OC)cc1)[C@@H]1CC[C@]2(C(=O)N[C@@H](CC(C)C)C(=O)O)CC[C@]3(C)[C@H](CC[C@@H]4[C@@]5(C)CC[C@H](O)C(C)(C)[C@@H]5CC[C@]43C)[C@@H]12
- EC50 [9]: Not Active
- CC50 (MT2): 16.7 µM

SMILES: C=C(COCC)[C@@H]1CC[C@]2(C(=O)N[C@@H](CC(C)C)C(=O)O)CC[C@]3(C)[C@H](CC[C@@H]4[C@@]5(C)CC[C@H](O)C(C)(C)[C@@H]5CC[C@]43C)[C@@H]12
- EC50 [9]: Not Active
- CC50 (MT2): 40.7 µM

SMILES: C=C(COCCc1ccc(Br)cc1)[C@@H]1CC[C@]2(C(=O)N[C@@H](CC(C)C)C(=O)O)CC[C@]3(C)[C@H](CC[C@@H]4[C@@]5(C)CC[C@H](O)C(C)(C)[C@@H]5CC[C@]43C)[C@@H]12
- EC50 [9]: Not Active
- CC50 (MT2): 20.8 µM

SMILES: C=C(COCCN1CCOCC1)[C@@H]1CC[C@]2(C(=O)NCCCCCCCC(=O)O)CC[C@]3(C)[C@H](CC[C@@H]4[C@@]5(C)CC[C@H](O)C(C)(C)[C@@H]5CC[C@]43C)[C@@H]12
- CC50 (MT2): 24.8 µM
- EC50 [3]: 1.8 µM
- selectivity ratio [7]: 13.8

SMILES: C=C(CO)[C@@H]1CC[C@]2(C(=O)N[C@@H](CC(C)C)C(=O)O)CC[C@]3(C)[C@H](CC[C@@H]4[C@@]5(C)CC[C@H](O)C(C)(C)[C@@H]5CC[C@]43C)[C@@H]12
- EC50 [9]: Not Active
- CC50 (MT2): 30.7 µM

SMILES: C=C(COCCCC)[C@@H]1CC[C@]2(C(=O)N[C@@H](CC(C)C)C(=O)O)CC[C@]3(C)[C@H](CC[C@@H]4[C@@]5(C)CC[C@H](O)C(C)(C)[C@@H]5CC[C@]43C)[C@@H]12
- EC50 [9]: Not Active
- CC50 (MT2): 24.9 µM

SMILES: C=C(C)[C@@H]1CC[C@]2(C(=O)N3CCC(CCCC(=O)O)CC3)CC[C@]3(C)[C@H](CC[C@@H]4[C@@]5(C)CC[C@H](OC(=O)CCC(C)(C)C(=O)O)C(C)(C)[C@@H]5CC[C@]43C)[C@@H]12
- CC50 (MT2): 33.2 µM
- EC50 [3]: 0.23 µM
- selectivity ratio [7]: 145

SMILES: C=C(C)[C@@H]1CC[C@]2(C(=O)NCCCCCCCNC(C)=O)CC[C@]3(C)[C@H](CC[C@@H]4[C@@]5(C)CC[C@H](O)C(C)(C)[C@@H]5CC[C@]43C)[C@@H]12
- CC50 (MT4): > 10 µM
- selectivity ratio [10]: > 150
- EC50 [8]: 0.092 µM

SMILES: C=C(C)[C@@H]1CC[C@]2(C(=O)N3CCC(CCCC(=O)NCCCN4CCOCC4)CC3)CC[C@]3(C)[C@H](CC[C@@H]4[C@@]5(C)CC[C@H](OC(=O)CC(C)(C)C(=O)O)C(C)(C)[C@@H]5CC[C@]43C)[C@@H]12
- CC50 (MT2): 18.5 µM
- CC50 (MT4): 8.6 µM
- EC50 [3]: 0.006 µM
- selectivity ratio [10]: 246
- selectivity ratio [7]: 3090
- EC50 [8]: 0.031 µM

SMILES: Cc1cn([C@H]2C[C@H](N=[N+]=[N-])[C@@H](CO)O2)c(=O)[nH]c1=O [ZIDOVUDINE]
- CC50 (MT2): 1870 µM
